± gives the standard deviation of the averaged measurements.
How the values were obtained:
[1] = compound: CC(=O)NCC(=O)N1[C@@H]2CC[C@H]1c1ccc(Nc3ncc(C(F)(F)F)c(NC4CCC4)n3)cc12; assay: surviving fraction relative to DMSO-only wells; higher = less growth inhibition; conditions: exposure time: 5 days
In short: (§1)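 Viability values are CellTiter-Glo luminescence readings, given as surviving fraction against the median of DMSO-only wells. The readings were taken after 10 minutes at room temperature, following five days of continuous exposure to inhibitors at 0.5, 1, 5, 10, 50, 100, 500 and 1000 nM that began 24 hours after log-phase tumour cell lines were seeded at 250–500 cells per well in 384-well plates. Every line was screened three times and kept only if replicate Pearson r >0.7 and median Z' >0.3.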

PACLITAXEL [2] = compound: T1, CC(=O)O[C@H]1C(=O)[C@@]2(C)[C@H]([C@H](OC(=O)c3ccccc3)[C@]3(O)C[C@H](OC(=O)[C@H](O)[C@@H](NC(=O)c4ccccc4)c4ccccc4)C(C)=C1C3(C)C)[C@]1(OC(C)=O)CO[C@@H]1C[C@@H]2O [PACLITAXEL]; assay: as above; conditions: exposure time: 5 days
In short: as §1

[3] = compound: CC(=O)c1c(C)c2cnc(Nc3ccc(N4CCNCC4)cn3)nc2n(C2CCCC2)c1=O; assay: as above; conditions: exposure time: 5 days
In short: as §1

CAMPTOTHECIN [4] = compound: T2, CC[C@@]1(O)C(=O)OCc2c1cc1n(c2=O)Cc2cc3ccccc3nc2-1 [CAMPTOTHECIN]; assay: as above; conditions: exposure time: 5 days
In short: as §1

YM155 [5] = compound: T3, COCC[n+]1c2c(n(Cc3cnccn3)c1C)C(=O)c1ccccc1C2=O [YM155]; assay: as above; conditions: exposure time: 5 days
In short: as §1

GEFITINIB = compound: COc1cc2ncnc(Nc3ccc(F)c(Cl)c3)c2cc1OCCCN1CCOCC1 [GEFITINIB]; assay: as above; conditions: exposure time: 5 days
In short: as §1

OSI-906 [6] = compound: T4, C[C@]1(O)C[C@@H](c2nc(-c3ccc4ccc(-c5ccccc5)nc4c3)c3c(N)nccn32)C1 [OSI-906]; assay: as above; conditions: exposure time: 5 days
In short: as §1

CELECOXIB [7] = compound: T5, Cc1ccc(-c2cc(C(F)(F)F)nn2-c2ccc(S(N)(=O)=O)cc2)cc1 [CELECOXIB]; assay: as above; conditions: exposure time: 5 days
In short: as §1

CARBOPLATIN [8] = compound: T6, O=C(O)C1(C(=O)O)CCC1.[NH2-].[NH2-].[Pt+2] [CARBOPLATIN]; assay: as above; conditions: exposure time: 5 days
In short: as §1

[9] = compound: CC(=O)NCC(=O)N1[C@@H]2CC[C@H]1c1ccc(Nc3ncc(C(F)(F)F)c(NC4CCC4)n3)cc12; assay: area under dose-response curve of surviving fraction (unscaled, Aref=0) (surviving fraction x log10(nM)); higher = more resistant; conditions: exposure time: 5 days; dose range 0.5-1000 nM
In short: (§2)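 Tumour cell lines in 384-well plates were exposed for five days to eight inhibitor concentrations from 0.5 to 1000 nM. Viability was read by CellTiter-Glo luminescence, normalised to DMSO-only wells, in three screens per line. Dose-response survival curves were fitted to surviving fractions by 3-parameter logistic regression in the drc R package. Area under the curve is the unscaled activity area (Aref = 0) over log10 dose.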

PACLITAXEL [10] = compound: T1, PACLITAXEL; assay: as above; conditions: exposure time: 5 days; dose range 0.5-1000 nM
In short: as §2

CAMPTOTHECIN [11] = compound: T2, CAMPTOTHECIN; assay: as above; conditions: exposure time: 5 days; dose range 0.5-1000 nM
In short: as §2

YM155 [12] = compound: T3, YM155; assay: as above; conditions: exposure time: 5 days; dose range 0.5-1000 nM
In short: as §2

OSI-906 [13] = compound: T4, OSI-906; assay: as above; conditions: exposure time: 5 days; dose range 0.5-1000 nM
In short: as §2

CELECOXIB [14] = compound: T5, CELECOXIB; assay: as above; conditions: exposure time: 5 days; dose range 0.5-1000 nM
In short: as §2

CARBOPLATIN [15] = compound: T6, CARBOPLATIN; assay: as above; conditions: exposure time: 5 days; dose range 0.5-1000 nM
In short: as §2

Q: How did the surviving fraction ([1]; 0.5 nM) turn out when HCC78 LUNG was run?
A: 0.885 ± 0.16

Q: And the surviving fraction ([1]; 1 nM)?
A: 0.798 ± 0.052

Q: And the surviving fraction ([1]; 5 nM)?
A: 0.935 ± 0.13

Q: What about the surviving fraction ([1]; 10 nM) of the same test system?
A: 0.878 ± 0.28

Q: And the surviving fraction ([1]; 50 nM)?
A: 0.735 ± 0.07

Q: And the surviving fraction ([1]; 100 nM)?
A: 0.188 ± 0.064

Q: And the surviving fraction ([1]; 500 nM)?
A: 0.236 ± 0.082

Q: And the surviving fraction ([1]; 1000 nM)?
A: 0.298 ± 0.075

Q: What about the surviving fraction (PACLITAXEL [2]; 0.5 nM) of the same test system?
A: 0.846 ± 0.3

Q: And the surviving fraction (PACLITAXEL [2]; 1 nM)?
A: 0.486 ± 0.046

Q: What about the surviving fraction (PACLITAXEL [2]; 5 nM) of the same test system?
A: 0.16 ± 0.036

Q: And the surviving fraction (PACLITAXEL [2]; 10 nM)?
A: 0.104 ± 0.021

Q: And the surviving fraction (PACLITAXEL [2]; 50 nM)?
A: 0.0717 ± 0.019

Q: What about the surviving fraction (PACLITAXEL [2]; 100 nM) of the same test system?
A: 0.077 ± 0.011

Q: And the surviving fraction (PACLITAXEL [2]; 500 nM)?
A: 0.0673 ± 0.013

Q: And the surviving fraction (PACLITAXEL [2]; 1000 nM)?
A: 0.1 ± 0.018

Q: And the surviving fraction ([3]; 0.5 nM)?
A: 1.03 ± 0.14

Q: And the surviving fraction ([3]; 1 nM)?
A: 0.975 ± 0.063

Q: What about the surviving fraction ([3]; 5 nM) of the same test system?
A: 1.29 ± 0.046

Q: And the surviving fraction ([3]; 10 nM)?
A: 0.899 ± 0.2

Q: What about the surviving fraction ([3]; 50 nM) of the same test system?
A: 1.02 ± 0.25

Q: What about the surviving fraction ([3]; 100 nM) of the same test system?
A: 1.17 ± 0.14

Q: What about the surviving fraction ([3]; 500 nM) of the same test system?
A: 0.619 ± 0.11

Q: And the surviving fraction ([3]; 1000 nM)?
A: 0.579 ± 0.041

Q: And the surviving fraction (CAMPTOTHECIN [4]; 0.5 nM)?
A: 0.33 ± 0.059

Q: What about the surviving fraction (CAMPTOTHECIN [4]; 1 nM) of the same test system?
A: 0.597 ± 0.15

Q: And the surviving fraction (CAMPTOTHECIN [4]; 5 nM)?
A: 0.0267 ± 0.0057

Q: What about the surviving fraction (CAMPTOTHECIN [4]; 10 nM) of the same test system?
A: 0.0123 ± 0.0031

Q: What about the surviving fraction (CAMPTOTHECIN [4]; 50 nM) of the same test system?
A: 0.0137 ± 0.0031

Q: What about the surviving fraction (CAMPTOTHECIN [4]; 100 nM) of the same test system?
A: 0.0147 ± 0.0023

Q: And the surviving fraction (CAMPTOTHECIN [4]; 500 nM)?
A: 0.013 ± 0.0027

Q: What about the surviving fraction (CAMPTOTHECIN [4]; 1000 nM) of the same test system?
A: 0.016 ± 0.0027

Q: And the surviving fraction (YM155 [5]; 0.5 nM)?
A: 0.7 ± 0.12

Q: And the surviving fraction (YM155 [5]; 1 nM)?
A: 0.701 ± 0.23

Q: What about the surviving fraction (YM155 [5]; 5 nM) of the same test system?
A: 0.457 ± 0.059

Q: What about the surviving fraction (YM155 [5]; 10 nM) of the same test system?
A: 0.269 ± 0.062

Q: And the surviving fraction (YM155 [5]; 50 nM)?
A: 0.0407 ± 0.0029

Q: And the surviving fraction (YM155 [5]; 100 nM)?
A: 0.0247 ± 0.004

Q: What about the surviving fraction (YM155 [5]; 500 nM) of the same test system?
A: 0.016

Q: What about the surviving fraction (YM155 [5]; 1000 nM) of the same test system?
A: 0.0187 ± 0.0025

Q: And the surviving fraction (GEFITINIB; 0.5 nM)?
A: 1.03 ± 0.2

Q: What about the surviving fraction (GEFITINIB; 1 nM) of the same test system?
A: 0.938 ± 0.12

Q: What about the surviving fraction (GEFITINIB; 5 nM) of the same test system?
A: 1.01 ± 0.1

Q: And the surviving fraction (GEFITINIB; 10 nM)?
A: 0.994 ± 0.12

Q: What about the surviving fraction (GEFITINIB; 50 nM) of the same test system?
A: 0.967 ± 0.12

Q: And the surviving fraction (GEFITINIB; 100 nM)?
A: 0.963 ± 0.067

Q: And the surviving fraction (GEFITINIB; 500 nM)?
A: 0.711 ± 0.23

Q: And the surviving fraction (GEFITINIB; 1000 nM)?
A: 0.668 ± 0.19

Q: And the surviving fraction (OSI-906 [6]; 0.5 nM)?
A: 0.712 ± 0.28

Q: What about the surviving fraction (OSI-906 [6]; 1 nM) of the same test system?
A: 0.809 ± 0.2

Q: What about the surviving fraction (OSI-906 [6]; 5 nM) of the same test system?
A: 0.954 ± 0.15

Q: And the surviving fraction (OSI-906 [6]; 10 nM)?
A: 0.94 ± 0.15

Q: And the surviving fraction (OSI-906 [6]; 50 nM)?
A: 0.801 ± 0.15

Q: And the surviving fraction (OSI-906 [6]; 100 nM)?
A: 0.831 ± 0.13

Q: What about the surviving fraction (OSI-906 [6]; 500 nM) of the same test system?
A: 0.764 ± 0.059

Q: And the surviving fraction (OSI-906 [6]; 1000 nM)?
A: 0.842 ± 0.12

Q: And the surviving fraction (CELECOXIB [7]; 0.5 nM)?
A: 0.815 ± 0.2

Q: And the surviving fraction (CELECOXIB [7]; 1 nM)?
A: 0.894 ± 0.038

Q: What about the surviving fraction (CELECOXIB [7]; 5 nM) of the same test system?
A: 0.89 ± 0.28

Q: And the surviving fraction (CELECOXIB [7]; 10 nM)?
A: 1.05 ± 0.18

Q: And the surviving fraction (CELECOXIB [7]; 50 nM)?
A: 0.886 ± 0.14

Q: What about the surviving fraction (CELECOXIB [7]; 100 nM) of the same test system?
A: 1.05 ± 0.082

Q: What about the surviving fraction (CELECOXIB [7]; 500 nM) of the same test system?
A: 0.973 ± 0.09

Q: What about the surviving fraction (CELECOXIB [7]; 1000 nM) of the same test system?
A: 0.801 ± 0.028

Q: What about the surviving fraction (CARBOPLATIN [8]; 0.5 nM) of the same test system?
A: 1.04 ± 0.061

Q: What about the surviving fraction (CARBOPLATIN [8]; 1 nM) of the same test system?
A: 0.884 ± 0.23

Q: What about the surviving fraction (CARBOPLATIN [8]; 5 nM) of the same test system?
A: 1.2 ± 0.18

Q: And the surviving fraction (CARBOPLATIN [8]; 10 nM)?
A: 0.951 ± 0.25

Q: And the surviving fraction (CARBOPLATIN [8]; 50 nM)?
A: 1 ± 0.22

Q: And the surviving fraction (CARBOPLATIN [8]; 100 nM)?
A: 1.12 ± 0.2

Q: What about the surviving fraction (CARBOPLATIN [8]; 500 nM) of the same test system?
A: 0.973 ± 0.037

Q: What about the surviving fraction (CARBOPLATIN [8]; 1000 nM) of the same test system?
A: 0.954 ± 0.18

Q: And the “area under dose-response curve” value [9]?
A: 2.33

Q: What about the “area under dose-response curve” value (PACLITAXEL [10]) of the same test system?
A: 0.585

Q: And the “area under dose-response curve” value (CAMPTOTHECIN [11])?
A: 0.338

Q: What about the “area under dose-response curve” value (YM155 [12]) of the same test system?
A: 0.851

Q: And the “area under dose-response curve” value (OSI-906 [13])?
A: 2.75

Q: And the “area under dose-response curve” value (CELECOXIB [14])?
A: 3.06

Q: And the “area under dose-response curve” value (CARBOPLATIN [15])?
A: 3.35
